Experimental data taken from PubChem BioAssay (NCI).
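All cell lines were grown in 96-well plates and treated with compound for 48 hours. TGI marks complete inhibition of growth.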

Legend:
Experiment in all cases: NCI-60 cell line screen, 48 h
UACC-257 melanoma = test system: UACC-257 melanoma
HOP-62 NSCLC = test system: HOP-62 NSCLC
HS 578T breast = test system: HS 578T breast
DU-145 prostate = test system: DU-145 prostate
HL-60(TB) leukemia = test system: HL-60(TB) leukemia
OVCAR-3 ovarian = test system: OVCAR-3 ovarian
EKVX NSCLC = test system: EKVX NSCLC
MOLT-4 leukemia = test system: MOLT-4 leukemia
SR leukemia = test system: SR leukemia
TK-10 renal = test system: TK-10 renal
MDA-N = test system: MDA-N
OVCAR-4 ovarian = test system: OVCAR-4 ovarian
786-0 renal = test system: 786-0 renal
SK-MEL-5 melanoma = test system: SK-MEL-5 melanoma
HT29 colon = test system: HT29 colon
NCI-H23 lung = test system: NCI-H23 lung
OVCAR-5 ovarian = test system: OVCAR-5 ovarian
COLO 205 colon = test system: COLO 205 colon
A498 renal = test system: A498 renal
NCI/ADR-RES ovarian = test system: NCI/ADR-RES ovarian
UACC-62 melanoma = test system: UACC-62 melanoma
MCF7 breast = test system: MCF7 breast
M14 melanoma = test system: M14 melanoma
OVCAR-8 ovarian = test system: OVCAR-8 ovarian
HCT-15 colon = test system: HCT-15 colon
K-562 leukemia = test system: K-562 leukemia
SF-295 CNS = test system: SF-295 CNS
SF-539 CNS = test system: SF-539 CNS
ACHN renal = test system: ACHN renal
A549 NSCLC = test system: A549 NSCLC
IGROV1 ovarian = test system: IGROV1 ovarian
SW-620 colon = test system: SW-620 colon
RPMI-8226 leukemia = test system: RPMI-8226 leukemia
HOP-92 NSCLC = test system: HOP-92 NSCLC
SK-MEL-2 melanoma = test system: SK-MEL-2 melanoma
KM12 colon = test system: KM12 colon
RXF 393 renal = test system: RXF 393 renal
HCT-116 colon = test system: HCT-116 colon
CAKI-1 renal = test system: CAKI-1 renal
HCC-2998 colon = test system: HCC-2998 colon
SF-268 CNS = test system: SF-268 CNS
UO-31 renal = test system: UO-31 renal
CCRF-CEM leukemia = test system: CCRF-CEM leukemia
U251 CNS = test system: U251 CNS
SK-MEL-28 melanoma = test system: SK-MEL-28 melanoma
BT-549 breast = test system: BT-549 breast
NCI-H460 lung = test system: NCI-H460 lung
SN12C renal = test system: SN12C renal
SNB-19 CNS = test system: SNB-19 CNS
MALME-3M melanoma = test system: MALME-3M melanoma
MDA-MB-435 = test system: MDA-MB-435
LOX IMVI melanoma = test system: LOX IMVI melanoma
NCI-H522 lung = test system: NCI-H522 lung
T-47D breast = test system: T-47D breast
NCI-H226 lung = test system: NCI-H226 lung
MDA-MB-231 breast = test system: MDA-MB-231 breast
SNB-75 CNS = test system: SNB-75 CNS
SK-OV-3 ovarian = test system: SK-OV-3 ovarian
PC-3 prostate = test system: PC-3 prostate

SMILES: CC1=C[C@@H](C)C[C@]2(C)CC[C@H](O2)[C@]23CC[C@](C(=O)O)(C[C@H](O2)[C@@H]2O[C@@](C)(CC2=O)[C@@H](O)[C@H]2CC[C@@]4(CCC[C@@H](O4)[C@H](C)C(=O)O[C@H]4C[C@H]([C@]5(O)OCC[C@H](C)[C@@H]5O)O[C@H]4C=C1)O2)O3
- TGI (UACC-257 melanoma): > 10 µM
- TGI (HOP-62 NSCLC): > 10 µM
- TGI (HS 578T breast): > 5.94 µM
- TGI (DU-145 prostate): > 10 µM
- TGI (HL-60(TB) leukemia): > 10 µM
- TGI (OVCAR-3 ovarian): > 10 µM
- TGI (EKVX NSCLC): > 10 µM
- TGI (MOLT-4 leukemia): > 10 µM
- TGI (SR leukemia): > 10 µM
- TGI (TK-10 renal): > 10 µM
- TGI (MDA-N): > 10 µM
- TGI (OVCAR-4 ovarian): > 10 µM
- TGI (786-0 renal): > 10 µM
- TGI (SK-MEL-5 melanoma): > 10 µM
- TGI (HT29 colon): > 10 µM
- TGI (NCI-H23 lung): > 10 µM
- TGI (OVCAR-5 ovarian): > 10 µM
- TGI (COLO 205 colon): > 10 µM
- TGI (A498 renal): > 10 µM
- TGI (NCI/ADR-RES ovarian): > 10 µM
- TGI (UACC-62 melanoma): > 10 µM
- TGI (MCF7 breast): > 10 µM
- TGI (M14 melanoma): > 10 µM
- TGI (OVCAR-8 ovarian): > 10 µM
- TGI (HCT-15 colon): > 10 µM
- TGI (K-562 leukemia): > 10 µM
- TGI (SF-295 CNS): > 10 µM
- TGI (SF-539 CNS): > 10 µM
- TGI (ACHN renal): > 10 µM
- TGI (A549 NSCLC): > 10 µM
- TGI (IGROV1 ovarian): > 10 µM
- TGI (SW-620 colon): > 10 µM
- TGI (RPMI-8226 leukemia): > 10 µM
- TGI (HOP-92 NSCLC): > 8.25 µM
- TGI (SK-MEL-2 melanoma): > 10 µM
- TGI (KM12 colon): > 10 µM
- TGI (RXF 393 renal): > 10 µM
- TGI (HCT-116 colon): > 10 µM
- TGI (CAKI-1 renal): > 10 µM
- TGI (HCC-2998 colon): > 10 µM
- TGI (SF-268 CNS): > 10 µM
- TGI (UO-31 renal): > 10 µM
- TGI (CCRF-CEM leukemia): > 10 µM
- TGI (U251 CNS): > 10 µM
- TGI (SK-MEL-28 melanoma): > 10 µM
- TGI (BT-549 breast): > 10 µM
- TGI (NCI-H460 lung): > 10 µM
- TGI (SN12C renal): > 10 µM
- TGI (SNB-19 CNS): > 10 µM
- TGI (MALME-3M melanoma): > 10 µM
- TGI (MDA-MB-435): > 10 µM
- TGI (LOX IMVI melanoma): > 10 µM
- TGI (NCI-H522 lung): > 10 µM
- TGI (T-47D breast): > 10 µM
- TGI (NCI-H226 lung): > 10 µM
- TGI (MDA-MB-231 breast): > 10 µM
- TGI (SNB-75 CNS): > 6.85 µM
- TGI (SK-OV-3 ovarian): > 10 µM
- TGI (PC-3 prostate): > 10 µM

SMILES: Cc1cc(/N=C/c2ccc(C#N)cc2)n(-c2ccccc2)n1
- TGI (UACC-257 melanoma): > 100 µM
- TGI (HOP-62 NSCLC): > 100 µM
- TGI (HS 578T breast): > 100 µM
- TGI (DU-145 prostate): > 100 µM
- TGI (HL-60(TB) leukemia): 76.6 µM
- TGI (OVCAR-3 ovarian): > 100 µM
- TGI (EKVX NSCLC): > 100 µM
- TGI (MOLT-4 leukemia): > 100 µM
- TGI (SR leukemia): > 100 µM
- TGI (TK-10 renal): > 100 µM
- TGI (MDA-N): > 100 µM
- TGI (OVCAR-4 ovarian): > 100 µM
- TGI (786-0 renal): > 100 µM
- TGI (SK-MEL-5 melanoma): > 100 µM
- TGI (HT29 colon): > 100 µM
- TGI (NCI-H23 lung): > 100 µM
- TGI (OVCAR-5 ovarian): > 100 µM
- TGI (COLO 205 colon): > 100 µM
- TGI (NCI/ADR-RES ovarian): > 100 µM
- TGI (UACC-62 melanoma): > 100 µM
- TGI (MCF7 breast): > 100 µM
- TGI (M14 melanoma): > 100 µM
- TGI (OVCAR-8 ovarian): > 100 µM
- TGI (HCT-15 colon): > 100 µM
- TGI (K-562 leukemia): > 100 µM
- TGI (SF-295 CNS): > 100 µM
- TGI (SF-539 CNS): > 100 µM
- TGI (ACHN renal): > 100 µM
- TGI (A549 NSCLC): > 100 µM
- TGI (IGROV1 ovarian): > 100 µM
- TGI (SW-620 colon): > 100 µM
- TGI (RPMI-8226 leukemia): > 100 µM
- TGI (HOP-92 NSCLC): > 100 µM
- TGI (SK-MEL-2 melanoma): > 100 µM
- TGI (KM12 colon): > 100 µM
- TGI (RXF 393 renal): > 100 µM
- TGI (HCT-116 colon): > 100 µM
- TGI (CAKI-1 renal): > 100 µM
- TGI (HCC-2998 colon): > 100 µM
- TGI (SF-268 CNS): > 100 µM
- TGI (UO-31 renal): > 100 µM
- TGI (CCRF-CEM leukemia): > 100 µM
- TGI (U251 CNS): > 100 µM
- TGI (SK-MEL-28 melanoma): > 100 µM
- TGI (BT-549 breast): > 100 µM
- TGI (NCI-H460 lung): > 100 µM
- TGI (SN12C renal): > 100 µM
- TGI (SNB-19 CNS): > 100 µM
- TGI (MALME-3M melanoma): > 100 µM
- TGI (MDA-MB-435): > 100 µM
- TGI (LOX IMVI melanoma): > 100 µM
- TGI (NCI-H522 lung): > 100 µM
- TGI (T-47D breast): > 100 µM
- TGI (NCI-H226 lung): > 100 µM
- TGI (MDA-MB-231 breast): > 100 µM
- TGI (SNB-75 CNS): > 100 µM
- TGI (SK-OV-3 ovarian): > 100 µM
- TGI (PC-3 prostate): > 100 µM

SMILES: c1ccc(C2=Nn3c(CCCCCCCCc4nnc5n4N=C(c4ccccc4)CS5)nnc3SC2)cc1
- TGI (UACC-257 melanoma): > 100 µM
- TGI (HOP-62 NSCLC): 44 µM
- TGI (HS 578T breast): > 100 µM
- TGI (DU-145 prostate): > 100 µM
- TGI (OVCAR-3 ovarian): > 100 µM
- TGI (EKVX NSCLC): > 100 µM
- TGI (MOLT-4 leukemia): > 77.9 µM
- TGI (SR leukemia): > 100 µM
- TGI (TK-10 renal): 79 µM
- TGI (MDA-N): > 100 µM
- TGI (OVCAR-4 ovarian): > 100 µM
- TGI (786-0 renal): 33.2 µM
- TGI (SK-MEL-5 melanoma): > 100 µM
- TGI (HT29 colon): > 50.6 µM
- TGI (NCI-H23 lung): > 100 µM
- TGI (OVCAR-5 ovarian): > 100 µM
- TGI (COLO 205 colon): > 100 µM
- TGI (A498 renal): > 96.1 µM
- TGI (NCI/ADR-RES ovarian): > 100 µM
- TGI (UACC-62 melanoma): > 100 µM
- TGI (MCF7 breast): > 100 µM
- TGI (M14 melanoma): > 100 µM
- TGI (OVCAR-8 ovarian): > 100 µM
- TGI (HCT-15 colon): > 100 µM
- TGI (K-562 leukemia): > 79.7 µM
- TGI (SF-295 CNS): 55.3 µM
- TGI (SF-539 CNS): 46.4 µM
- TGI (ACHN renal): > 100 µM
- TGI (A549 NSCLC): > 100 µM
- TGI (IGROV1 ovarian): > 100 µM
- TGI (SW-620 colon): > 100 µM
- TGI (RPMI-8226 leukemia): > 100 µM
- TGI (HOP-92 NSCLC): > 82.3 µM
- TGI (SK-MEL-2 melanoma): > 88.7 µM
- TGI (KM12 colon): > 100 µM
- TGI (RXF 393 renal): 67.5 µM
- TGI (HCT-116 colon): > 100 µM
- TGI (CAKI-1 renal): > 100 µM
- TGI (HCC-2998 colon): > 100 µM
- TGI (SF-268 CNS): > 81.8 µM
- TGI (UO-31 renal): > 100 µM
- TGI (CCRF-CEM leukemia): > 59.7 µM
- TGI (U251 CNS): 36.8 µM
- TGI (SK-MEL-28 melanoma): > 100 µM
- TGI (BT-549 breast): > 100 µM
- TGI (NCI-H460 lung): > 100 µM
- TGI (SN12C renal): > 100 µM
- TGI (SNB-19 CNS): 43.3 µM
- TGI (MALME-3M melanoma): > 89.6 µM
- TGI (MDA-MB-435): > 100 µM
- TGI (LOX IMVI melanoma): > 100 µM
- TGI (NCI-H522 lung): > 100 µM
- TGI (T-47D breast): > 100 µM
- TGI (NCI-H226 lung): > 100 µM
- TGI (MDA-MB-231 breast): 80.6 µM
- TGI (SNB-75 CNS): 33.6 µM
- TGI (SK-OV-3 ovarian): 85.6 µM
- TGI (PC-3 prostate): > 100 µM
